Values of other authors in patent US7060695B2, “Method to prevent vision loss” (QLT, Inc., priority 2001, dated 2006).

System: CNV
Details: approved protocol, re-treatment as frequently as every three months if CNV leakage

verteporfin
closure of neovasculature: closes neovasculature | loss of visual acuity compared to placebo controls: prevents loss of visual acuity compared to placebo controls
